Measurements published in patent US9247759B2, “Identification of human T2R receptors that respond to bitter compounds that elicit the bitter taste in compositions, and the use thereof in assays to identify compounds that inhibit (block) bitter taste in compositions and use thereof” (SENOMYX, INC., priority 2007, dated 2016).

Experiments:
[1] = biological target: hT2R16 (Homo sapiens (Human), UniProt Q9NYV7); assay: hT2R panel inhibition, transient HEK293 G16g44, agonist Salicin 1 mM; format: cell-based; conditions: HEK293, compound at 25 μM; receptor activated to EC80 with the corresponding agonist; read-out: screening result against bitter receptor 16
Chain of hT2R16 (Q9NYV7 whole entry): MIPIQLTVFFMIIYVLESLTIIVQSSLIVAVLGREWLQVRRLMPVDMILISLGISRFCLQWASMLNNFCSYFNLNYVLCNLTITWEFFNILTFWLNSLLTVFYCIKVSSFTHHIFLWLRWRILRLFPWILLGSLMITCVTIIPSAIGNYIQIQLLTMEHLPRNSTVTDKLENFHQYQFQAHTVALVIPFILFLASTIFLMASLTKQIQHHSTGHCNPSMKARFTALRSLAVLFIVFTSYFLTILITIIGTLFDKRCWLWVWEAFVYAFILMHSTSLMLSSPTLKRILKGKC
Summary of the method: (§1)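 Panel: 22 human T2Rs, individually transient in stable G16g44 cells. Stim: EC80 agonist. Output: % reduction of activity by test cpd.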

[2] = biological target: hT2R5 (Homo sapiens (Human), UniProt Q9NYW4); assay: hT2R panel inhibition, transient HEK293 G16g44, agonist Picoline 10 mM; format: cell-based; conditions: HEK293, compound at 25 μM; receptor activated to EC80 with the corresponding agonist; read-out: screening result against bitter receptor 5
Chain of hT2R5 (Q9NYW4 whole entry): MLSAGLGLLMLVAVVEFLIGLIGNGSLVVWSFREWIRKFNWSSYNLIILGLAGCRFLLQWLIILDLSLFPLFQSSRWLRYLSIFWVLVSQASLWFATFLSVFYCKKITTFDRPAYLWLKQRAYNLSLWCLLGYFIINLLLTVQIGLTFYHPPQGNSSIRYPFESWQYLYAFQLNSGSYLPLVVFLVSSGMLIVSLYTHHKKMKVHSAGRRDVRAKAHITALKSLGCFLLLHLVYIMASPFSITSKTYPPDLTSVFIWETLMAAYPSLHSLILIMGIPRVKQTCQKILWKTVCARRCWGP
Summary of the method: as §1

[3] = test system: hT2R63; assay: hT2R panel inhibition, transient HEK293 G16g44, agonist Caffeine 1 mM or Andrographolide 100 μM; format: cell-based, human; conditions: compound at 25 μM; receptor activated to EC80 with the corresponding agonist
Summary of the method: as §1

[4] = biological target: T1, hT2R14 (Homo sapiens (Human), UniProt Q9NYV8); assay: hT2R panel inhibition, transient HEK293 G16g44, agonist Aristolochic Acid 2 μM; format: cell-based; conditions: HEK293, compound at 25 μM; receptor activated to EC80 with the corresponding agonist; read-out: screening result against bitter receptor 14
T1 sequence (Q9NYV8 whole entry): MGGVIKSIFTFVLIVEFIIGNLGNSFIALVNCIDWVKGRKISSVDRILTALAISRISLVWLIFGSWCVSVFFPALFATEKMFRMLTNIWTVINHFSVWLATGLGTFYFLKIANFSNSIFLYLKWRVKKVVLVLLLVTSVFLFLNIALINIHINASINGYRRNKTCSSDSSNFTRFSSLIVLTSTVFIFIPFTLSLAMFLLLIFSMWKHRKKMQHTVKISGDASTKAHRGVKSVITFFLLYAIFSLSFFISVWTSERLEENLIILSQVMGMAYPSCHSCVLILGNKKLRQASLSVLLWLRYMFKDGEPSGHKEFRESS
Summary of the method: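 Agonist challenge was at EC80, with 0.5 mM andrographolide on hT2R8 and 2 μM aristolochic acid on hT2R14. Inhibition was measured in functional assays in HEK293 cells that stably carry the promiscuous G protein G16g44 and were transiently transfected with the individual receptor.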

[5] = test system: hT2R44; assay: hT2R panel inhibition, transient HEK293 G16g44, agonist Denatonium 0.5 μM; format: cell-based, human; conditions: compound at 25 μM; receptor activated to EC80 with the corresponding agonist
Summary of the method: as §1

[6] = biological target: hT2R7 (Homo sapiens (Human), UniProt Q9NYW3); assay: hT2R panel inhibition, transient HEK293 G16g44, agonist Chloroquine pH6.5 10 mM; format: cell-based; conditions: HEK293, compound at 25 μM; receptor activated to EC80 with the corresponding agonist; read-out: screening result against bitter receptor 7
Chain of hT2R7 (Q9NYW3 whole entry): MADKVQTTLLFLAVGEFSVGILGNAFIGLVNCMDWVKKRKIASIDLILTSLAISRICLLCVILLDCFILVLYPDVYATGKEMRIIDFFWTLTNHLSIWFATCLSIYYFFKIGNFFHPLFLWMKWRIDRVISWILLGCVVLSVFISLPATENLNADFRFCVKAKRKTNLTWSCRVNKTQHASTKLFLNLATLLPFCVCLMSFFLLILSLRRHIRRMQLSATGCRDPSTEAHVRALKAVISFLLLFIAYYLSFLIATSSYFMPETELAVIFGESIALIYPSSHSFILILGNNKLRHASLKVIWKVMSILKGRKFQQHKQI
Summary of the method: as §1

[7] = biological target: hT2R71 (Homo sapiens (Human), UniProt P59536); assay: hT2R panel inhibition, transient HEK293 G16g44, agonist Picric Acid 10 μM; format: cell-based; conditions: HEK293, compound at 25 μM; receptor activated to EC80 with the corresponding agonist; read-out: screening result against bitter receptor 71
Chain of hT2R71 (P59536 whole entry): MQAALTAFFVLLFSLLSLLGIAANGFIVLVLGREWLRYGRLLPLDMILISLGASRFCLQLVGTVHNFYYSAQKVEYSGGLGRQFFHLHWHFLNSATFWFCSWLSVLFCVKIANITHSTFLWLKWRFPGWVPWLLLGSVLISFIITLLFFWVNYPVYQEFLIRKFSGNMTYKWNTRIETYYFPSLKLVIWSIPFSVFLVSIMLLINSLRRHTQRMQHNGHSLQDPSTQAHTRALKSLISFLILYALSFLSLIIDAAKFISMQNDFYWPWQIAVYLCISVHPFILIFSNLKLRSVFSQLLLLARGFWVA
Summary of the method: as §1

[8] = biological target: hT2R64 (Homo sapiens (Human), UniProt P59538); assay: hT2R panel inhibition, transient HEK293 G16g44, agonist Aristolochic Acid 1 μM; format: cell-based; conditions: HEK293, compound at 25 μM; receptor activated to EC80 with the corresponding agonist; read-out: screening result against bitter receptor 64
Chain of hT2R64 (P59538 whole entry): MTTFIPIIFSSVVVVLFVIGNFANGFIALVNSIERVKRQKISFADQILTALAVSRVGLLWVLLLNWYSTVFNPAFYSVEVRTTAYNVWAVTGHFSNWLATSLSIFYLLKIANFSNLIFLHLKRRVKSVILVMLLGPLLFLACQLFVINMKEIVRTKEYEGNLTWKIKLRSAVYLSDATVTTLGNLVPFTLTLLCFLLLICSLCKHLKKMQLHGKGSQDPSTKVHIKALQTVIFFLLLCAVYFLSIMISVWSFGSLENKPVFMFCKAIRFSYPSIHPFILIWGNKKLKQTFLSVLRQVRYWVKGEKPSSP
Summary of the method: as §1

[9] = test system: hT2R55; assay: hT2R panel inhibition, transient HEK293 G16g44, agonist Cinchonine 150 μM; format: cell-based, human; conditions: compound at 25 μM; receptor activated to EC80 with the corresponding agonist
Summary of the method: as §1

[10] = biological target: hT2R51 (Homo sapiens (Human), UniProt P59533); assay: hT2R panel inhibition, transient HEK293 G16g44, agonist Prop 2.5 μM; format: cell-based; conditions: HEK293, compound at 25 μM; receptor activated to EC80 with the corresponding agonist; read-out: screening result against bitter receptor 51
Chain of hT2R51 (P59533 whole entry): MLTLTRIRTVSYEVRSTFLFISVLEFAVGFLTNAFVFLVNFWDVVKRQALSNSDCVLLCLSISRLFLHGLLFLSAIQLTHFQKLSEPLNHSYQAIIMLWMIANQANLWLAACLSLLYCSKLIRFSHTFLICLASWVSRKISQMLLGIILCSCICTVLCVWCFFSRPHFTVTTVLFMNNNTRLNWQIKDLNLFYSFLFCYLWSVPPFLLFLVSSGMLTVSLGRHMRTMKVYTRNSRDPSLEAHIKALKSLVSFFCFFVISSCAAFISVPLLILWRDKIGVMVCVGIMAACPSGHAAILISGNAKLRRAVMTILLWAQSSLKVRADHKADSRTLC
Summary of the method: as §1

[11] = biological target: hT2R75 (Homo sapiens (Human), UniProt P59540); assay: hT2R panel inhibition, transient HEK293 G16g44, agonist Strychnine 1 μM; format: cell-based; conditions: HEK293, read-out: screening result against bitter receptor 75, compound at 25 μM; receptor activated to EC80 with the corresponding agonist
Chain of hT2R75 (P59540 whole entry): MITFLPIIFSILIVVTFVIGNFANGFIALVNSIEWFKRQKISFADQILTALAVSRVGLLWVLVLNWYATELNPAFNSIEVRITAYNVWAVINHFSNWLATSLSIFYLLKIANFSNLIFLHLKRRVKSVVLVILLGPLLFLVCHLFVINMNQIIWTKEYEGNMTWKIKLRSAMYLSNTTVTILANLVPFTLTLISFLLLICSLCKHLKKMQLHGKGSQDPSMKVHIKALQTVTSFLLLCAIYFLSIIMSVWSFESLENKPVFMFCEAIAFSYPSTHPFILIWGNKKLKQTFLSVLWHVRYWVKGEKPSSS

[12] = biological target: T1, hT2R14; assay: hT2R14 antagonist high-throughput FLIPR assay, stable cell line with G16g44, agonist aristolochic acid; format: cell-based; conditions: read-out: IC50 on hT2R14 bitter receptor
Summary of the method: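 Compounds were co-applied with 3 μM aristolochic acid, a dose set to reach 70-80% of maximal hT2R14 activation. Read-out was FLIPR fluorescence in a stable HEK293 line co-expressing hT2R14 and G16g44.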

[13] = biological target: hT2R10 (Homo sapiens (Human), UniProt Q9NYW0); assay: hT2R panel inhibition, transient HEK293 G16g44, agonist Strychnine 50 μM; format: cell-based; conditions: HEK293, read-out: screening result against bitter receptor 10, compound at 25 μM; receptor activated to EC80 with the corresponding agonist
Chain of hT2R10 (Q9NYW0 whole entry): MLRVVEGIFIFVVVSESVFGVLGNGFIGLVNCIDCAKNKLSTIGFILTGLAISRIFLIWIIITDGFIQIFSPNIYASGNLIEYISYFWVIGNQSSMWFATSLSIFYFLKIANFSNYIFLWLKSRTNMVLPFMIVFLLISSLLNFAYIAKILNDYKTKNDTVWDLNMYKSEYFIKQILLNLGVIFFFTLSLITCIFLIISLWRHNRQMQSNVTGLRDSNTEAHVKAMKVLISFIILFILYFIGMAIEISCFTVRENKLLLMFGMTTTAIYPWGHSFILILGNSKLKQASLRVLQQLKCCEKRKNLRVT

[14] = biological target: hT2R3 (Homo sapiens (Human), UniProt Q9NYW6); assay: hT2R panel inhibition, transient HEK293 G16g44, agonist Chloroquine pH6.5 50 μM; format: cell-based; conditions: HEK293, compound at 25 μM; receptor activated to EC80 with the corresponding agonist; read-out: screening result against bitter receptor 3
Chain of hT2R3 (Q9NYW6 whole entry): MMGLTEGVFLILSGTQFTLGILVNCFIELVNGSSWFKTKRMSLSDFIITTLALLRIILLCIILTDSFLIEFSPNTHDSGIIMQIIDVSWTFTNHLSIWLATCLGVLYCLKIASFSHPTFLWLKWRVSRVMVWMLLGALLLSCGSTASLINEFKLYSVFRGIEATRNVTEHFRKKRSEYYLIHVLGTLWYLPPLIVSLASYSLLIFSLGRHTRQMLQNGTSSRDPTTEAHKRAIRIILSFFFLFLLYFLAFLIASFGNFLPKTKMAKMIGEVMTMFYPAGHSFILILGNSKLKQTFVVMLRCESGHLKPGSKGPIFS
Summary of the method: as §1

[15] = biological target: hT2R61 (Homo sapiens (Human), UniProt P59537); assay: hT2R panel inhibition, transient HEK293 G16g44, agonist Aristolochic Acid 25 nM; format: cell-based; conditions: HEK293, compound at 25 μM; receptor activated to EC80 with the corresponding agonist; read-out: screening result against bitter receptor 61
Chain of hT2R61 (P59537 whole entry): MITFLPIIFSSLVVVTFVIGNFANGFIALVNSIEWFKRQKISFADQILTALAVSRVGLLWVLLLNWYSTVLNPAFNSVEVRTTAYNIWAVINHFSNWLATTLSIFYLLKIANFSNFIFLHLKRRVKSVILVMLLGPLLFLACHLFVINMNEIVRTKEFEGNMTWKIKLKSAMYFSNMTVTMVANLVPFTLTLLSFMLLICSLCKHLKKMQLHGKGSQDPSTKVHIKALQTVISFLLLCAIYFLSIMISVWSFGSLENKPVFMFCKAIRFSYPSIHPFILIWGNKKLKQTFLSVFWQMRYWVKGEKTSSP
Summary of the method: as §1

[16] = test system: hT2R67; assay: hT2R panel inhibition, transient HEK293 G16g44, agonist Andrographolide 5 μM; format: cell-based, human; conditions: compound at 25 μM; receptor activated to EC80 with the corresponding agonist
Summary of the method: as §1

[17] = test system: hT2R65; assay: hT2R panel inhibition, transient HEK293 G16g44, agonist Oleuropein 1 mM; format: cell-based, human; conditions: compound at 25 μM; receptor activated to EC80 with the corresponding agonist
Summary of the method: as §1

[18] = biological target: hT2R13 (Homo sapiens (Human), UniProt Q9NYV9); assay: hT2R panel inhibition, transient HEK293 G16g44, agonist Oxyphenonium 1 mM; format: cell-based; conditions: HEK293, compound at 25 μM; receptor activated to EC80 with the corresponding agonist; read-out: screening result against bitter receptor 13
Chain of hT2R13 (Q9NYV9 whole entry): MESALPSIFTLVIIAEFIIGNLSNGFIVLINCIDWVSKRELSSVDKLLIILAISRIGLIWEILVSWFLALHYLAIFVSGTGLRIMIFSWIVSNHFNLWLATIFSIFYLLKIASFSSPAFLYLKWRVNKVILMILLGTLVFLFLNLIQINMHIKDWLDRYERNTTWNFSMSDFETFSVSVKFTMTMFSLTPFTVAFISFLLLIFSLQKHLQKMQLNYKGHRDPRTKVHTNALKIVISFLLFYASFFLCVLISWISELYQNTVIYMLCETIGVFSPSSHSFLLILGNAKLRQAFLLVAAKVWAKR
Procedure: Specifically, in order to evaluate the inhibitory selectivity of the Compound C compound, this compound was tested against 22 human T2Rs which were deorphaned by Senomyx. These receptors and the bitter ligands that activate these human T2Rs are reported in earlier patent applications which are incorporated by reference herein. These 22 human T2Rs are hT2R1, 3, 4, 5, 7, 8, 9, 10, 13, 14, 16, 44, 51, 54, 55, 61, 63, 64, 65, 67, 71 and 75. The amino acid and nucleic acid sequences of all of these T2Rs may be found in these earlier patent applications. These human T2Rs were each individually transiently transfected into HEK293 cells that stably express the promiscuous G protein G16g44 and functional assays were effected using these receptors as disclosed in these same patent applications. […] The ligands were used at EC80 concentration levels. The list of bitter ligands utilized and the tested ligand concentrations are contained in Table 5 of this example.
Relating to the foregoing, FIG. 5 contains experimental results wherein Compound C was tested with different agonist compounds. The inhibition activity is represented by the reduction of receptor activity in the presence of Compound C. […] These 13 hT2Rs are hT2R3, 7, 10, 14, 16, 44, 51, 55, 61, 63, 64, 65, and 71.

[19] = test system: hT2R54; assay: hT2R panel inhibition, transient HEK293 G16g44, agonist Ranitidine 5 mM; format: cell-based, human; conditions: compound at 25 μM; receptor activated to EC80 with the corresponding agonist
Summary of the method: as §1

Row | Compound | inhibition at 25 µM [1] [%] | inhibition at 25 µM [2] [%] | screening result against bitter receptor 63 [3] | inhibition at 25 µM [4] [%] | screening result against bitter receptor 44 [5] | inhibition at 25 µM [6] [%] | inhibition at 25 µM [7] [%] | inhibition at 25 µM [8] [%] | screening result against bitter receptor 55 [9] | inhibition at 25 µM [10] [%] | inhibition at 25 µM [11] [%] | IC50 [12] [µM] | inhibition at 25 µM [13] [%] | inhibition at 25 µM [14] [%] | inhibition at 25 µM [15] [%] | screening result against bitter receptor 67 [16] | screening result against bitter receptor 65 [17] | inhibition at 25 µM [18] [%] | screening result against bitter receptor 54 [19]
1 | O=C(O)c1ccc(S(=O)(=O)N(Cc2ccccc2)Cc2ccco2)cc1 [Example 5-5, 4-(N-benzyl-N-(furan-2-ylmethyl)sulfamoyl)benzoic acid] | 40 to 60 | 20 to 40 | ++++ (80% or greater inhibition = ++++) | > 80 | ++ (40% to 60% inhibition = ++) | 40 to 60 | 60 to 80 | 60 to 80 | ++++ (80% or greater inhibition = ++++) | 20 to 40 | 20 to 40 | 4.6 | 20 to 40 | 40 to 60 | > 80 | + (20% to 40% inhibition = +) | + (20% to 40% inhibition = +) | 20 to 40 | + (20% to 40% inhibition = +)
2 | COc1ccc(CN(Cc2ccoc2)S(=O)(=O)c2ccc(C(=O)O)cc2)cc1 [Example 5-27, 4-(N-(furan-3-ylmethyl)-N-(4-methoxybenzyl)sulfamoyl)benzoic acid] | 20 to 40 | 40 to 60 | +++ (60% to 80% inhibition = +++) | > 80 | +++ (60% to 80% inhibition = +++) | 20 to 40 | 60 to 80 | 60 to 80 | ++++ (80% or greater inhibition = ++++) | 40 to 60 | 20 to 40 |  | 60 to 80 | 40 to 60 | > 80 | ++ (40% to 60% inhibition = ++) | ++ (40% to 60% inhibition = ++) | 20 to 40 | ++ (40% to 60% inhibition = ++)
3 | O=C(O)c1ccc(S(=O)(=O)N(Cc2ccccc2)Cc2ccccc2)cc1 [Example 5-28, 4-(N,N-dibenzylsulfamoyl)benzoic acid] | 20 to 40 |  | ++++ (80% or greater inhibition = ++++) | > 80 | + (20% to 40% inhibition = +) |  | 40 to 60 | > 80 | ++++ (80% or greater inhibition = ++++) | 40 to 60 | 20 to 40 | 7.74 |  |  | 40 to 60 | + (20% to 40% inhibition = +) |  | 20 to 40 | + (20% to 40% inhibition = +)
4 | COc1ccc(CN(Cc2ccc(F)c(OC)c2)S(=O)(=O)c2ccc(C(=O)O)cc2)cc1 [Example 5-50, 4-(N-(4-fluoro-3-methoxybenzyl)-N-(4-methoxybenzyl)sulfamoyl)-benzoic acid] | 40 to 60 | 20 to 40 | ++++ (80% or greater inhibition = ++++) | > 80 | +++ (60% to 80% inhibition = +++) | 20 to 40 | 60 to 80 | 60 to 80 | ++++ (80% or greater inhibition = ++++) | 20 to 40 |  | 1.65 | 20 to 40 | 40 to 60 | > 80 | ++ (40% to 60% inhibition = ++) | ++ (40% to 60% inhibition = ++) | 20 to 40 | 
5 | CCc1ccc(CN(Cc2ccccc2)S(=O)(=O)c2ccc(C(=O)O)cc2)cc1 [Example 5-85, 4-(N-benzyl-N-(4-ethylbenzyl)sulfamoyl)benzoic acid] | 40 to 60 | 20 to 40 | +++ (60% to 80% inhibition = +++) | > 80 |  | 20 to 40 | 20 to 40 |  | +++ (60% to 80% inhibition = +++) | 20 to 40 | 20 to 40 |  | 40 to 60 | 40 to 60 | > 80 | ++ (40% to 60% inhibition = ++) | +++ (60% to 80% inhibition = +++) | 20 to 40 | +++ (60% to 80% inhibition = +++)
6 | O=C(O)c1ccc(S(=O)(=O)N(Cc2ccccc2)Cc2ccc3c(c2)OCO3)cc1 [Example 5-93, 4-(N-(benzo[d][1,3]dioxol-5-ylmethyl)-N-benzylsulfamoyl)benzoic acid] | 40 to 60 | 20 to 40 | ++++ (80% or greater inhibition = ++++) | > 80 | +++ (60% to 80% inhibition = +++) | 20 to 40 | 60 to 80 | > 80 | ++++ (80% or greater inhibition = ++++) | 40 to 60 |  |  | 40 to 60 |  | > 80 | ++ (40% to 60% inhibition = ++) |  | 20 to 40 | +++ (60% to 80% inhibition = +++)
